Reference: PubChem BioAssay AID1996
Values after ≈ are worked out from the molar mass of the structure shown.

settings: buffer; pH 7.4; 200.0 µM

Question: With `COc1ccc(N2CC(C(=O)Nc3cc(C)ccn3)CC2=O)cc1` (stereo not given) as the compound, how does the solubility kinetic read?
Answer: > 48.8 µg/mL

Question: Which solubility kinetic does the source give for `CCC(NC(=O)Nc1cc(C)on1)(C(F)(F)F)C(F)(F)F` here?
Answer: 14.6 µg/mL (≈ 45.7 µM)

Question: With `COc1cc(C(=O)O/N=C(\N)c2cccc([N+](=O)[O-])c2)cc(OC)c1OC` as the compound, how does the solubility kinetic read?
Answer: 0.3 µg/mL (≈ 0.799 µM)

Question: Which solubility kinetic does the source give for `CC(CN1C(C)CCCC1C)OC(=O)c1ccc(F)cc1.Cl` (stereo not given) here?
Answer: 46.5 µg/mL

Question: For `CCOc1cc(C#N)ccc1OCC(=O)N1CCc2ccccc2C1`, which solubility kinetic is on record?
Answer: 45.5 µg/mL (≈ 135 µM)

Question: Which solubility kinetic does the source give for `CN(C1CCCCC1)S(=O)(=O)c1ccc(-c2ccccn2)s1` here?
Answer: 0.5 µg/mL (≈ 1.49 µM)

Question: For `Cc1c(C(=O)NC2CCCCC2)oc2ccc(F)cc12`, which solubility kinetic is on record?
Answer: 2.8 µg/mL (≈ 10.2 µM)

Question: Which solubility kinetic does the source give for `Cc1nc2ccccn2c1C(=O)NNC(=O)Nc1ccccc1` here?
Answer: > 46.4 µg/mL

Question: With `Cc1cc(C)c(CN2CCC(CO)(CCOc3ccccc3)CC2)cc1C` as the compound, how does the solubility kinetic read?
Answer: 38.6 µg/mL (≈ 105 µM)

Question: Which solubility kinetic does the source give for `C=C(C)CN1CCN(c2ccc(N3C(=O)CCCC3=O)cc2[N+](=O)[O-])CC1` here?
Answer: 54 µg/mL (≈ 145 µM)

Question: With `CN(C)S(=O)(=O)c1cccc(NC(=O)CCNC(=O)Nc2ccccc2)c1` as the compound, how does the solubility kinetic read?
Answer: > 58.6 µg/mL

Question: For `O=C(CCCN1C(=O)c2ccccc2C1=O)NCc1ccc(F)cc1`, which solubility kinetic is on record?
Answer: 47.8 µg/mL (≈ 140 µM)

Question: For `CN(C)C=Nc1nonc1-c1ccccc1`, which solubility kinetic is on record?
Answer: 24.4 µg/mL (≈ 113 µM)

Question: With `O=C(Nc1cccc2ncccc12)c1ccccc1Cl` as the compound, how does the solubility kinetic read?
Answer: 18.5 µg/mL (≈ 65.4 µM)

Question: With `COc1ccc(NC(=O)CN(C)CC(=O)NC2CCCCC2C)cc1` (stereo not given) as the compound, how does the solubility kinetic read?
Answer: 50.2 µg/mL (≈ 144 µM)

Question: With `O=C(CSCc1ccc(Cl)cc1)Nc1ccc(O)cc1C(=O)O` as the compound, how does the solubility kinetic read?
Answer: > 52.8 µg/mL

Question: Which solubility kinetic does the source give for `COc1ccc(NS(=O)(=O)c2ccc3[nH]c(=O)[nH]c3c2)cc1` here?
Answer: 12.7 µg/mL (≈ 39.8 µM)

Question: Which solubility kinetic does the source give for `C=CCOC(=O)C1=C(C)NC(=O)NC1c1ccc2c(c1)OCO2` (stereo not given) here?
Answer: 43.4 µg/mL (≈ 137 µM)

Question: For `O/N=C/c1cc2ccccc2n1Cc1ccccc1F`, which solubility kinetic is on record?
Answer: 0.5 µg/mL (≈ 1.86 µM)

Question: Which solubility kinetic does the source give for `CC1(C)CC(=O)C=C(N2CCOCC2)C1` here?
Answer: > 31.4 µg/mL

Question: For `Cc1ccc(S(=O)(=O)Nc2cccc(S(=O)(=O)Nc3ccccc3C(=O)O)c2)c(C)c1`, which solubility kinetic is on record?
Answer: > 69.1 µg/mL

Question: For `COCCCNc1nc2ccccc2[nH]c1=O`, which solubility kinetic is on record?
Answer: > 35 µg/mL

Question: For `COc1ccc(CCC(=O)Nc2ccc(C(=O)c3ccncc3)cc2)cc1`, which solubility kinetic is on record?
Answer: 3.8 µg/mL (≈ 10.5 µM)

Question: For `NC12CC3CC(C1)CC(CC(=O)O)(C3)C2`, which solubility kinetic is on record?
Answer: 23.6 µg/mL (≈ 113 µM)

Question: Which solubility kinetic does the source give for `Cc1ccc(C)c(NC(=O)CN(C)C(=O)c2cccc(Oc3ccccc3)c2)c1` here?
Answer: 31.1 µg/mL (≈ 80.1 µM)

Question: Which solubility kinetic does the source give for `S=C(NCCc1c[nH]c2ccccc12)NC1CC1` here?
Answer: > 38.9 µg/mL

Question: Which solubility kinetic does the source give for `Cc1ccc(Cl)c2sc(NC(=O)C3=COCCO3)nc12` here?
Answer: 1.1 µg/mL (≈ 3.54 µM)

Question: For `CNC(=O)c1sc(NCc2ccccc2OC)nc1C`, which solubility kinetic is on record?
Answer: > 43.7 µg/mL

Question: Which solubility kinetic does the source give for `Cc1ccc(Nc2nc(N)nc(CCl)n2)c(C)c1` here?
Answer: > 39.6 µg/mL

Question: For `O=C(NCCCNC(=O)c1ccco1)c1cccc(F)c1`, which solubility kinetic is on record?
Answer: > 43.5 µg/mL

Question: For `Cc1nn(-c2ccccc2)c(Cl)c1C(=O)N1CCN(C)CC1`, which solubility kinetic is on record?
Answer: > 47.8 µg/mL

Question: For `COc1cccc(-n2cnc3sc4c(c3c2=O)CCC4)c1`, which solubility kinetic is on record?
Answer: 5.9 µg/mL (≈ 19.8 µM)

Question: With `COCCNC(=O)c1cc2cc3ccc(OC)cc3nc2o1` as the compound, how does the solubility kinetic read?
Answer: 42.1 µg/mL (≈ 140 µM)

Question: For `CC(C)(C)c1ccc(C(=O)O/N=C(\N)c2ccccc2)cc1`, which solubility kinetic is on record?
Answer: 1.1 µg/mL (≈ 3.71 µM)

Question: For `Cc1ccc(N2C(=O)C3CCCN3C2=S)cc1Cl` (stereo not given), which solubility kinetic is on record?
Answer: > 42.1 µg/mL

Question: With `N#Cc1cccc(NC(=O)CN2CCN(Cc3ccccc3)CC2)c1` as the compound, how does the solubility kinetic read?
Answer: 49.8 µg/mL (≈ 149 µM)

Question: For `CC[C@H](C)[C@H](NC(N)=O)C(=O)NCCc1ccc(Cl)cc1`, which solubility kinetic is on record?
Answer: > 46.8 µg/mL

Question: Which solubility kinetic does the source give for `O=C1CNC(=S)N1CCc1ccccc1Cl` here?
Answer: > 38.2 µg/mL

Question: Which solubility kinetic does the source give for `CCOC(=O)c1c(N)c2cc([N+](=O)[O-])ccc2n1C` here?
Answer: < 0.2 µg/mL

Question: With `Cc1ccnc(NC(=O)c2ccc(C(=O)c3ccccc3)cc2)c1` as the compound, how does the solubility kinetic read?
Answer: 25.8 µg/mL (≈ 81.6 µM)

Question: For `COc1ccc(Nc2ccc([N+](=O)[O-])cn2)cc1`, which solubility kinetic is on record?
Answer: 3 µg/mL (≈ 12.2 µM)

Question: Which solubility kinetic does the source give for `COc1ccc(-c2cc(C(=O)Nc3cc(C)on3)no2)cc1` here?
Answer: < 0.2 µg/mL

Question: Which solubility kinetic does the source give for `COc1ccc(CCC(=O)Nc2cnc3ccccc3c2)cc1` here?
Answer: 1 µg/mL (≈ 3.26 µM)

Question: For `Cc1ccc(N(CC(=O)NC2CC2)S(=O)(=O)c2ccccc2)c(C)c1`, which solubility kinetic is on record?
Answer: > 53.8 µg/mL

Question: With `O=C(NCC1CCCO1)c1cc2ccccc2nc1Cl` (stereo not given) as the compound, how does the solubility kinetic read?
Answer: > 43.6 µg/mL

Question: Which solubility kinetic does the source give for `CC1CN(CCCCSc2ccccc2)CC(C)O1.Cl` (stereo not given) here?
Answer: 41.8 µg/mL

Question: For `CC(C)(O)C#Cc1ccc(C(=O)NC2CCCCC2)s1`, which solubility kinetic is on record?
Answer: > 43.7 µg/mL

Question: With `CCN(CC)C(=O)COc1ccc2c3c(c(=O)oc2c1)CCCC3` as the compound, how does the solubility kinetic read?
Answer: 48.1 µg/mL (≈ 146 µM)

Question: Which solubility kinetic does the source give for `COc1ccc(CC(=O)Nc2cc(S(=O)(=O)Nc3ccc(OC)cc3)ccc2OC)cc1` here?
Answer: 14.6 µg/mL (≈ 32 µM)

Question: With `COC(=O)c1cccn(CC(=O)c2ccc(Cl)cc2)c1=O` as the compound, how does the solubility kinetic read?
Answer: > 45.9 µg/mL

Question: Which solubility kinetic does the source give for `O=C(Nc1cccc(S(=O)(=O)N2CCOCC2)c1)c1cc(=O)[nH]c2ccccc12` here?
Answer: 9.9 µg/mL (≈ 23.9 µM)

Question: For `CCOc1ccc(C2=CSC3=NCCN23)cc1[N+](=O)[O-]`, which solubility kinetic is on record?
Answer: 36.2 µg/mL (≈ 124 µM)

Question: Which solubility kinetic does the source give for `S=C(NCCc1ccccc1)Nc1ccccc1N1CCOCC1` here?
Answer: > 51.2 µg/mL

Question: For `CCC(C)c1ccc(C(C)NC(=S)NCc2ccc(F)cc2)cc1` (stereo not given), which solubility kinetic is on record?
Answer: < 0.4 µg/mL

Question: For `CC(C)(O)CNC(=O)Nc1ccc(Cl)c(Cl)c1`, which solubility kinetic is on record?
Answer: 24.6 µg/mL (≈ 88.8 µM)

Question: With `O=C(NCc1ccccc1)N1CCOc2ccccc21` as the compound, how does the solubility kinetic read?
Answer: 31.3 µg/mL (≈ 117 µM)

Question: Which solubility kinetic does the source give for `COc1ccc(CN(C)C(=O)c2ccncc2)c(OC)c1` here?
Answer: > 42.9 µg/mL

Question: Which solubility kinetic does the source give for `Cc1cc(NS(=O)(=O)c2ccc(NC(=O)/C=C/c3ccccc3)cc2)nc(C)n1` here?
Answer: > 61.3 µg/mL

Question: Which solubility kinetic does the source give for `COc1ccc(NC(=O)Nc2cccc3ccccc23)c(OC)c1` here?
Answer: 0.5 µg/mL (≈ 1.55 µM)

Question: Which solubility kinetic does the source give for `O=C(O)c1csc(-c2ccccc2)n1` here?
Answer: 28.2 µg/mL (≈ 137 µM)
